# Laboratory results taken from patent publication US20150190509A1, “RESIN[…]” (MESTEX AG, priority 2012, published 2015).
# Key:
# [1] = storage stability of RTX dissolved in ethanol with or without protective gas; assay type: physicochemical
# Protocol: Under these circumstances a loss of the RTX dissolved in ethanol occurs, on the order of magnitude of 10% in 3 months. However, if the RTX is dissolved together with argon in ethanol or in other body-compatible solvents, the loss at ambient temperature remains very low. As described in further detail below, RTX in the resiniferatoxin solution according to the invention even loses its undesired tendency to cling to polymeric surfaces.
# [2] = loss of RTX on contact with polymer (polypropylene) syringe; assay type: physicochemical; details: diluted ready-for-use solution (buffer solution and hyaluronic acid), kept in polypropylene syringe for 10 minutes
# Text: An additional positive property of the resiniferatoxin solution according to the invention is the fact that the substance is stabilized even in a diluted, ready-for-use solution (i.e. diluted with a buffer solution and hyaluronic acid), so that it can also be used in combination with commercial, polymer plastic syringes which are usually produced from polypropylene, polyethylene, polyurethane and other materials. To date, it has been considered absolutely necessary for the RTX solution not to come in contact with the polymer, because it binds immediately to it.
structure (smiles),measurement,setting,value
"C=C(C)[C@]12C[C@@H](C)[C@@]34O[C@](Cc5ccccc5)(O[C@@H]1[C@@H]3C=C(COC(=O)Cc1ccc(O)c(OC)c1)C[C@]1(O)C(=O)C(C)=C[C@@H]41)O2 [RTX, Resiniferatoxin]",RTX content (stability of the dissolved RTX) over months,"[1]; RTX dissolved in ethanol at 5° C. with 0.07 wt% argon, second measurement series",100%
same,RTX content (stability of the dissolved RTX) over months,"[1]; RTX dissolved in ethanol at 5° C. without additional protective gas (argon), first measurement series",continuous decrease
same,RTX content (stability of the dissolved RTX) over months,"[1]; RTX dissolved in ethanol at 25° C. with 0.07 wt % argon, third measurement series",100%
same,loss of RTX at ambient temperature,"[1]; RTX dissolved together with argon in ethanol or other body-compatible solvents, ambient temperature",very low
same,loss of the RTX dissolved in ethanol,"[1]; frozen RTX stored under protective gas (argon), then dissolved with ethanol, in 3 months",~10%
same,loss of RTX in polypropylene syringe,[2],without measurable loss
